Results: patent US20160333419A1, “GENE SIGNATURES ASSOCIATED WITH SENSITIVITY TO MDM2 INHIBITORS” (DAIICHI SANKYO COMPANY, LIMITED, priority 2014, published 2016)

What was measured:
Test in all cases: OncoPanel cytotoxicity assay
Type in all cases: cell-based
NCI-H508 = settings: Homo sapiens, 72 hour incubation
Description: (§1) Cells were grown in RPMI 1640, 10% FBS, 2 mM L-alanyl-L-Glutamine, 1 mM Na Pyruvate, or a special medium in a humidified atmosphere of 5% CO2 at 37° C. Cells were seeded into 384-well plates and incubated in a humidified atmosphere of 5% CO2 at 37° C. Test compounds were added 24 hours post cell seeding. At the same time, a time zero, untreated cell plate was generated as a control. After a 72 hour incubation period, cells were fixed and stained with nuclear dye to allow visualization of nuclei.
(§2) Compounds were serially diluted 3.16-fold and assayed over 10 concentrations of inhibitor in a final assay concentration of 0.1% DMSO from the highest test concentration specified in the sample information chapter. Automated fluorescence microscopy was carried out using a GE Healthcare InCell Analyzer 1000, and images were collected with a 4× objective. Twelve bit tiff images were acquired using the InCell Analyzer 1000 3.2 and analyzed with Developer Toolbox 1.6 software.
(§3) Cell proliferation was measured by the signal intensity of the incorporated nuclear dye. The cell proliferation assay output is referred to as the relative cell count. To determine the cell proliferation end point, the cell proliferation data output is transformed to percent of control (POC) using the following formula: […]
(§4) Relative cell count IC50 (IC50) is the test compound's concentration that produces 50% of the cell proliferation inhibitory response or 50% cytotoxicity level. IC50 values were calculated using nonlinear regression to fit data to a sigmoidal 4 point, 4 parameter One-Site dose response model, where: y (fit)=A+[(B−A)/(1+((C/x)̂D))]. Curve-fitting, IC50 calculations and report generation were performed using a custom data reduction engine MathIQ based software (AIM). […] In these cases, the IC50 values were expressed as 40 μM and 10 μM, respectively (Table 2).

A204 = settings: Homo sapiens, 72 hour incubation
Description: as §1, §2, §3, §4

SK-LMS-1 = settings: Homo sapiens, 72 hour incubation
Description: as §1, §2, §3, §4

SK-BR-3 = settings: Homo sapiens, 72 hour incubation
Description: as §1, §2, §3, §4

A375 = settings: Homo sapiens, A-375, 72 hour incubation
Description: as §1, §2, §3, §4

Hs 766T = settings: Homo sapiens, Hs766T, 72 hour incubation
Description: as §1, §2, §3, §4

HCT-15 = settings: Homo sapiens, 72 hour incubation
Description: as §1, §2, §3, §4

SNU-5 = settings: Homo sapiens, 72 hour incubation
Description: as §1, §2, §3, §4

HT = settings: Homo sapiens, 72 hour incubation
Description: as §1, §2, §3, §4

Calu1 = settings: Homo sapiens, Calu-1, 72 hour incubation
Description: as §1, §2, §3, §4

BT20 = settings: Homo sapiens, BT-20, 72 hour incubation
Description: as §1, §2, §3, §4

Hs 578T = settings: Homo sapiens, 72 hour incubation
Description: as §1, §2, §3, §4

CCRFCEM = settings: Homo sapiens, CCRF-CEM, 72 hour incubation
Description: as §1, §2, §3, §4

RL95-2 = settings: Homo sapiens, 72 hour incubation
Description: as §1, §2, §3, §4

NCIH441 = settings: Homo sapiens, NCI-H441, 72 hour incubation
Description: as §1, §2, §3, §4

NCI-H295R = settings: Homo sapiens, 72 hour incubation
Description: as §1, §2, §3, §4

786-O = settings: Homo sapiens, 786-0, 72 hour incubation
Description: as §1, §2, §3, §4

SW954 = settings: Homo sapiens, SW 954, 72 hour incubation
Description: as §1, §2, §3, §4

OVCAR3 = settings: Homo sapiens, OVCAR-3, 72 hour incubation
Description: as §1, §2, §3, §4

MDA MB 231 = settings: Homo sapiens, 72 hour incubation
Description: as §1, §2, §3, §4

A-673 = settings: Homo sapiens, A673, 72 hour incubation
Description: as §1, §2, §3, §4

A549 = settings: Homo sapiens, 72 hour incubation
Description: as §1, §2, §3, §4

SW1417 = settings: Homo sapiens, 72 hour incubation
Description: as §1, §2, §3, §4

T24 = settings: Homo sapiens, T-24, 72 hour incubation
Description: as §1, §2, §3, §4

SW579 = settings: Homo sapiens, 72 hour incubation
Description: as §1, §2, §3, §4

HT-29 = settings: Homo sapiens, 72 hour incubation
Description: as §1, §2, §3, §4

HT-1197 = settings: Homo sapiens, HT1197, 72 hour incubation
Description: as §1, §2, §3, §4

BPH1 = settings: Homo sapiens, BPH-1, 72 hour incubation
Description: as §1, §2, §3, §4

MEG01 = settings: Homo sapiens, MEG-01, 72 hour incubation
Description: as §1, §2, §3, §4

CaOV3 = settings: Homo sapiens, Caov-3, 72 hour incubation
Description: as §1, §2, §3, §4

Calu6 = settings: Homo sapiens, Calu-6, 72 hour incubation
Description: as §1, §2, §3, §4

MDA MB 453 = settings: Homo sapiens, 72 hour incubation
Description: as §1, §2, §3, §4

HeLa = settings: Homo sapiens, 72 hour incubation
Description: as §1, §2, §3, §4

DBTRG-05MG = settings: Homo sapiens, 72 hour incubation
Description: as §1, §2, §3, §4

RPMI 6666 = settings: Homo sapiens, 72 hour incubation
Description: as §1, §2, §3, §4

ACHN = settings: Homo sapiens, 72 hour incubation
Description: as §1, §2, §3, §4

Row | Structure (SMILES) | IC50 (NCI-H508) | IC50 (A204) | IC50 (SK-LMS-1) | IC50 (SK-BR-3) | IC50 (A375) | IC50 (Hs 766T) | IC50 (HCT-15) | IC50 (SNU-5) | IC50 (HT) | IC50 (Calu1) | IC50 (BT20) | IC50 (Hs 578T) | IC50 (CCRFCEM) | IC50 (RL95-2) | IC50 (NCIH441) | IC50 (NCI-H295R) | IC50 (786-O) | IC50 (SW954) | IC50 (OVCAR3) | IC50 (MDA MB 231) | further results
1 | CC[C@@H]1CNC2(CC2)CN1C(=O)[C@@H]1C[C@@H](F)CN1C(=O)C1=C(C(C)C)N2C(=N[C@@](C)(c3ccc(Cl)nc3)[C@H]2c2ccc(Cl)c(F)c2)S1 [Compound A, [(5R,6S)-5-(4-Chloro-3-fluorophenyl)-6-(6-chloropyridin-3-yl)-6-methyl-3-(propan-2-yl)-5,6-dihydroimidazo[2,1-b][1,3]thiazol-2-yl][(2S,4R)-2-{[(6R)-6-ethyl-4,7-diazaspiro[2.5]oct-7-yl]carbonyl}-4-fluoropyrrolidin-1-yl]methanone] | > 40 µM | 0.755 µM | > 40 µM | 27.7 µM | 0.317 µM | > 40 µM | 32 µM | > 40 µM | > 40 µM | > 40 µM | > 40 µM | > 40 µM | > 40 µM | 13.8 µM | > 40 µM | > 40 µM | 37.3 µM | > 40 µM | > 40 µM | > 40 µM | IC50 (A-673): > 40 µM; IC50 (A549): 0.401 µM; IC50 (SW1417): > 40 µM; IC50 (T24): > 40 µM; IC50 (SW579): > 40 µM; IC50 (HT-29): 33.5 µM; IC50 (HT-1197): 0.235 µM; IC50 (BPH1): > 40 µM; IC50 (MEG01): > 40 µM; IC50 (CaOV3): > 40 µM; IC50 (Calu6): > 40 µM; IC50 (MDA MB 453): 32.8 µM; IC50 (HeLa): > 40 µM; IC50 (DBTRG-05MG): 0.132 µM; IC50 (RPMI 6666): 1.7 µM; IC50 (ACHN): 1.07 µM
2 | CC1(C)CCC2(CC1)N[C@@H](C(=O)N[C@@H]1CC[C@@H](C(N)=O)OC1)[C@H](c1ccnc(Cl)c1F)[C@]21C(=O)Nc2cc(Cl)ccc21 [Compound B, (3′R,4′S,5′R)—N-[(3R,6S)-6-carbamoyltetrahydro-2H-pyran-3-yl]-6″-chloro-4′-(2-chloro-3-fluoropyridin-4-yl)-4,4-dimethyl-2″-oxo-1″,2″-dihydrodispiro[cyclohexane-1,2′-pyrrolidine-3′,3″-indole]-5′-carboxamide] | > 10 µM | 0.0294 µM | > 10 µM | > 10 µM | 0.0434 µM | > 10 µM | > 10 µM | > 10 µM | > 10 µM | > 10 µM | > 10 µM | > 10 µM | > 10 µM | 3.72 µM | > 10 µM | > 10 µM | 0.342 µM | 8.33 µM | > 10 µM | > 10 µM | IC50 (A-673): 9.21 µM; IC50 (A549): 0.0769 µM; IC50 (SW1417): > 10 µM; IC50 (T24): > 10 µM; IC50 (SW579): 9.61 µM; IC50 (HT-29): 5.14 µM; IC50 (HT-1197): 0.135 µM; IC50 (BPH1): > 10 µM; IC50 (MEG01): 9.7 µM; IC50 (CaOV3): > 10 µM; IC50 (Calu6): 5.38 µM; IC50 (MDA MB 453): 9.29 µM; IC50 (HeLa): > 10 µM; IC50 (DBTRG-05MG): 0.0846 µM; IC50 (RPMI 6666): 0.0793 µM; IC50 (ACHN): 0.174 µM
